In the supplement of paper PMC10307832:

Tests used:
Assay in all cases: relative viability (nuclei count vs DMSO), 5 days (fraction); higher = more cells survive
[1] = compound: CCn1c(-c2nonc2N)nc2cnc(Oc3cccc(NC(=O)c4ccc(OCCN5CCOCC5)cc4)c3)cc21 + C[C@@H](Oc1cc(-c2cnn(C3CCNCC3)c2)cnc1N)c1c(Cl)ccc(F)c1Cl [Crizotinib] (partner 1 µM)
Outline: (§1)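 Relative viability equals treated-well nuclei counts divided by vehicle-well nuclei counts. Counts came from 4× images of lung cancer cell lines grown in 1536-well plates for 5 days after pin-tool dosing on the day after seeding. Dosing used one drug alone or a fixed anchor-drug dose plus five library-drug doses (not always all listed) in √10 steps, and values are medians of duplicate plates.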

[2] = compound: CCn1c(-c2nonc2N)nc2cnc(Oc3cccc(NC(=O)c4ccc(OCCN5CCOCC5)cc4)c3)cc21 + CCNC(=O)c1noc(-c2cc(C(C)C)c(O)cc2O)c1-c1ccc(CN2CCOCC2)cc1 [Luminespib] (partner 0.01 µM)
Outline: as §1

Mirin + Lapatinib = compound: N=C1NC(=O)/C(=C/c2ccc(O)cc2)S1 [Mirin] + CS(=O)(=O)CCNCc1ccc(-c2ccc3ncnc(Nc4ccc(OCc5cccc(F)c5)c(Cl)c4)c3c2)o1 [Lapatinib] (partner 2 µM)
Outline: as §1

[3] = compound: CCC1=CN=CN=C1N2CCN(CC2)CC3=NC4=C(N3)C=C(C=C4)C(F)(F)F + N=C(N)NC(=N)NCCc1ccccc1 [Phenformin] (partner 250 µM)
Outline: as §1

Cell Line | relative viability ([1]; first compound 0.04 µM) | relative viability ([1]; first compound 0.1265 µM) | relative viability ([1]; first compound 0.4 µM) | relative viability ([1]; first compound 1.265 µM) | relative viability ([1]; first compound 4 µM) | relative viability ([2]; first compound 0.04 µM) | relative viability ([2]; first compound 0.1265 µM) | relative viability ([2]; first compound 0.4 µM) | relative viability ([2]; first compound 1.265 µM) | relative viability ([2]; first compound 4 µM) | relative viability (Mirin + Lapatinib; first compound 0.25 µM) | relative viability (Mirin + Lapatinib; first compound 0.7906 µM) | relative viability (Mirin + Lapatinib; first compound 2.5 µM) | relative viability (Mirin + Lapatinib; first compound 7.906 µM) | relative viability (Mirin + Lapatinib; first compound 25 µM) | relative viability ([3]; first compound 0.04 µM) | relative viability ([3]; first compound 0.1265 µM) | relative viability ([3]; first compound 0.4 µM) | relative viability ([3]; first compound 1.265 µM) | relative viability ([3]; first compound 4 µM)
NCI-H1666 | 1.21 | 1.2 | 1.23 | 0.726 | 0.372 | 1.2 | 1.24 | 1.27 | 0.907 | 0.478 | 0.683 | 0.381 | 0.638 | 0.444 | 0.443 | 0.569 | 0.551 | 0.52 | 0.555 | 0.594
NCI-H1734 | 0.671 | 0.669 | 0.581 | 0.464 | 0.285 | 0.165 | 0.21 | 0.192 | 0.15 | 0.166 | 1.02 | 0.906 | 1.06 | 0.941 | 0.905 | 0.377 | 0.379 | 0.427 | 0.381 | 0.445
NCI-H1755 | 0.911 | 0.94 | 0.845 | 0.795 | 0.776 | 0.345 | 0.713 | 0.275 | 0.299 | 0.388 | 1.03 | 0.951 | 1.05 | 1.11 | 1.18 | 0.632 | 0.583 | 0.597 | 0.484 | 0.634
NCI-H1792 | 1.08 | 0.99 | – | 0.592 | 0.841 | 0.477 | 0.21 | 0.47 | 0.299 | 0.308 | 0.891 | 0.814 | 0.97 | 0.829 | 0.942 | 0.382 | 0.259 | 0.162 | – | 0.222
NCI-H1915 | 1.09 | 0.899 | 0.868 | 0.93 | 0.86 | 0.905 | 0.831 | 0.949 | 0.775 | 0.716 | 0.95 | – | 0.997 | 0.853 | 0.826 | 0.361 | 0.362 | 0.376 | 0.344 | 0.358
NCI-H1944 | 1.15 | 1.11 | – | 1.07 | 1.12 | 0.575 | 0.728 | 0.765 | 0.675 | 0.56 | 0.904 | – | 0.774 | 0.747 | 0.486 | 0.239 | 0.188 | 0.187 | 0.162 | 0.227
NCI-H1975 | 0.933 | 0.788 | 0.864 | 0.279 | 0.218 | 0.229 | 0.136 | 0.199 | 0.139 | 0.125 | 1.12 | 0.785 | 0.883 | 1.02 | 0.757 | 0.434 | 0.392 | 0.374 | 0.382 | 0.436
NCI-H1993 | 0.991 | 0.864 | – | 0.75 | 0.742 | 0.891 | 0.768 | 1.02 | 0.692 | 0.664 | 0.856 | 0.784 | 0.887 | 0.976 | 0.81 | 0.551 | 0.461 | 0.496 | 0.537 | 0.579
NCI-H2009 | 0.987 | 0.847 | 0.754 | 0.41 | 0.258 | 1 | 0.804 | 0.822 | 0.599 | 0.394 | 0.883 | 0.469 | 1.02 | 0.847 | 0.993 | 0.483 | 0.498 | 0.45 | 0.419 | 0.374
NCI-H2023 | 0.737 | 0.736 | 0.593 | 0.25 | 0.194 | 0.794 | 0.72 | 0.67 | 0.381 | 0.332 | 1.08 | 0.301 | 0.752 | 0.876 | 0.585 | 0.449 | 0.433 | 0.442 | 0.378 | 0.393
NCI-H2085 | 0.988 | 0.797 | 0.661 | 0.741 | 0.72 | 0.535 | 0.395 | 0.373 | 0.365 | 0.377 | 0.828 | 0.791 | 0.823 | 0.807 | 0.628 | 0.724 | 0.78 | 0.663 | 0.522 | 0.735
NCI-H2087 | – | 0.591 | 0.678 | 0.522 | 0.336 | 0.161 | 0.143 | 0.181 | 0.153 | 0.143 | 1.09 | 1.07 | 0.91 | 1.12 | 1.14 | 0.499 | 0.465 | 0.448 | 0.467 | 0.496
NCI-H2126 | 1.05 | 1.05 | 1.04 | 1.07 | 1.02 | 1.06 | 0.903 | 0.776 | – | 0.635 | 0.77 | 0.735 | 0.765 | 0.717 | 0.621 | 0.524 | 0.533 | 0.521 | 0.515 | 0.581
NCI-H2170 | 1.03 | 1.21 | 1.15 | 1.17 | 1.26 | 0.344 | 0.453 | 0.926 | 0.478 | 0.474 | 0.273 | 0.223 | 0.278 | 0.324 | 0.274 | 0.401 | 0.359 | 0.351 | 0.382 | 0.361
NCI-H2228 | 0.468 | 0.385 | 0.49 | 0.432 | 0.471 | 0.118 | 0.109 | 0.133 | 0.162 | 0.124 | 0.88 | 1 | 1.51 | 1.12 | 0.921 | 0.313 | 0.341 | 0.286 | 0.312 | 0.399
NCI-H2347 | 0.602 | 0.69 | 0.589 | 0.484 | 0.39 | 0.399 | 0.451 | 0.599 | 0.283 | 0.302 | 0.915 | 0.944 | 0.981 | 0.956 | 0.966 | 0.314 | 0.397 | 0.498 | 0.243 | 0.304
NCI-H2405 | 0.964 | 0.782 | 0.655 | 0.257 | 0.285 | 0.735 | 0.49 | 0.219 | 0.217 | 0.214 | 1.11 | 1.12 | 1.02 | 1.05 | 1.22 | 0.418 | 0.401 | 0.419 | – | 0.492
